# Measurements published in ChEMBL document CHEMBL1145476, “Inhibitory activities of three classes of acyclic nucleoside phosphonates against murine polyomavirus and primate simian virus 40 strains” (Antimicrob Agents Chemother, 2007).
# Tested on: not listed separately
# Experiment: Cytotoxicity against mouse UC1B cells
# Assay type: cell-based
# Details: not given
row,SMILES,CC50 [µM]
1,Nc1cc(OC[C@@H](CO)OCP(=O)(O)O)nc(N)n1,10.5
2,Nc1ncnc2c1ncn2C[C@@H](CO)OCP(=O)(O)O,24.3
3,Nc1cc(OCCOCP(=O)(O)O)nc(N)n1,43.2
4,Nc1ncnc2c1ncn2CCOCP(=O)(O)O [ADEFOVIR],24.2
5,Nc1ccn(C[C@@H](CO)OCP(=O)(O)O)c(=O)n1.O.O [CIDOFOVIR],169
6,Nc1ccn(C[C@H]2COP(=O)(O)CO2)c(=O)n1 [CYCLIC CIDOFOVIR],582

# Tested on: not listed separately
# Experiment: Selectivity index, ratio of CC50 for mouse UC1B cells to EC50 of Murine polyomavirus 2PTA2
# Assay type: functional
# Details: not given
row,SMILES,Ratio CC50/EC50
1,Nc1cc(OC[C@@H](CO)OCP(=O)(O)O)nc(N)n1,0.8
2,Nc1ncnc2c1ncn2C[C@@H](CO)OCP(=O)(O)O,2.6
3,Nc1cc(OCCOCP(=O)(O)O)nc(N)n1,2.7
4,Nc1ncnc2c1ncn2CCOCP(=O)(O)O [ADEFOVIR],1.9
5,Nc1ccn(C[C@@H](CO)OCP(=O)(O)O)c(=O)n1.O.O [CIDOFOVIR],8.9
6,Nc1ccn(C[C@H]2COP(=O)(O)CO2)c(=O)n1 [CYCLIC CIDOFOVIR],9.5

# Tested on: Simian virus 40
# Experiment: Antiviral activity against Simian virus 40 PML1 EK in african green monkey BSC1 cells assessed as reduction of virus-induced cytopathogenicity
# Assay type: functional, organism-based
# Details: Betapolyomavirus macacae, BSC-1
row,SMILES,EC50 [µM]
1,Nc1cc(OC[C@@H](CO)OCP(=O)(O)O)nc(N)n1,73.1
2,Nc1ncnc2c1ncn2C[C@@H](CO)OCP(=O)(O)O,15.4
3,Nc1cc(OCCOCP(=O)(O)O)nc(N)n1,140
4,Nc1ncnc2c1ncn2CCOCP(=O)(O)O [ADEFOVIR],168
5,Nc1ccn(C[C@@H](CO)OCP(=O)(O)O)c(=O)n1.O.O [CIDOFOVIR],19.3
6,Nc1ccn(C[C@H]2COP(=O)(O)CO2)c(=O)n1 [CYCLIC CIDOFOVIR],20.8

# Tested on: not listed separately
# Experiment: Selectivity index, ratio of CC50 for african green monkey BSC1 cells ot EC50 for Simian virus 40 PML1 EK
# Assay type: functional, BSC-1
# Details: not given
row,SMILES,Ratio CC50/EC50
1,Nc1cc(OC[C@@H](CO)OCP(=O)(O)O)nc(N)n1,1.9
2,Nc1ncnc2c1ncn2C[C@@H](CO)OCP(=O)(O)O,5.8
3,Nc1cc(OCCOCP(=O)(O)O)nc(N)n1,0.5
4,Nc1ncnc2c1ncn2CCOCP(=O)(O)O [ADEFOVIR],1.3
5,Nc1ccn(C[C@@H](CO)OCP(=O)(O)O)c(=O)n1.O.O [CIDOFOVIR],21.9
6,Nc1ccn(C[C@H]2COP(=O)(O)CO2)c(=O)n1 [CYCLIC CIDOFOVIR],>=32.3

# Tested on: not listed separately
# Experiment: Selectivity index, ratio of CC50 for african green monkey BSC1 cells ot EC50 for Simian virus 40 PML2 DAR
# Assay type: functional, BSC-1
# Details: not given
row,SMILES,Ratio CC50/EC50
1,Nc1cc(OC[C@@H](CO)OCP(=O)(O)O)nc(N)n1,1.2
2,Nc1ncnc2c1ncn2C[C@@H](CO)OCP(=O)(O)O,8.8
3,Nc1cc(OCCOCP(=O)(O)O)nc(N)n1,0.4
4,Nc1ncnc2c1ncn2CCOCP(=O)(O)O [ADEFOVIR],1.7
5,Nc1ccn(C[C@@H](CO)OCP(=O)(O)O)c(=O)n1.O.O [CIDOFOVIR],23.8
6,Nc1ccn(C[C@H]2COP(=O)(O)CO2)c(=O)n1 [CYCLIC CIDOFOVIR],>=36.3

# Tested on: not listed separately
# Experiment: Selectivity index, ratio of CC50 for african green monkey BSC1 cells ot EC50 for Simian virus 40 A2895
# Assay type: functional, BSC-1
# Details: not given
row,SMILES,Ratio CC50/EC50
1,Nc1cc(OC[C@@H](CO)OCP(=O)(O)O)nc(N)n1,1.9
2,Nc1ncnc2c1ncn2C[C@@H](CO)OCP(=O)(O)O,7.3
3,Nc1cc(OCCOCP(=O)(O)O)nc(N)n1,0.5
4,Nc1ncnc2c1ncn2CCOCP(=O)(O)O [ADEFOVIR],1.3
5,Nc1ccn(C[C@@H](CO)OCP(=O)(O)O)c(=O)n1.O.O [CIDOFOVIR],22.3
6,Nc1ccn(C[C@H]2COP(=O)(O)CO2)c(=O)n1 [CYCLIC CIDOFOVIR],>=30.3

# Tested on: Murine polyomavirus
# Experiment: Antiviral activity against Murine polyomavirus PTA in mouse UC1B cells assessed as reduction of virus-induced cytopathogenicity
# Assay type: functional, cell-based
# Details: Alphapolyomavirus muris
row,SMILES,EC50 [µM]
1,Nc1cc(OC[C@@H](CO)OCP(=O)(O)O)nc(N)n1,10.9
2,Nc1ncnc2c1ncn2C[C@@H](CO)OCP(=O)(O)O,14.5
3,Nc1cc(OCCOCP(=O)(O)O)nc(N)n1,9.5
4,Nc1ncnc2c1ncn2CCOCP(=O)(O)O [ADEFOVIR],11.3
5,Nc1ccn(C[C@@H](CO)OCP(=O)(O)O)c(=O)n1.O.O [CIDOFOVIR],16.2
6,Nc1ccn(C[C@H]2COP(=O)(O)CO2)c(=O)n1 [CYCLIC CIDOFOVIR],54.4

# Tested on: Simian virus 40
# Experiment: Antiviral activity against Simian virus 40 A2895 in african green monkey BSC1 cells assessed as reduction of virus-induced cytopathogenicity
# Assay type: functional, organism-based
# Details: Betapolyomavirus macacae, A2895, BSC-1
row,SMILES,EC50 [µM]
1,Nc1cc(OC[C@@H](CO)OCP(=O)(O)O)nc(N)n1,72.8
2,Nc1ncnc2c1ncn2C[C@@H](CO)OCP(=O)(O)O,12.3
3,Nc1cc(OCCOCP(=O)(O)O)nc(N)n1,148
4,Nc1ncnc2c1ncn2CCOCP(=O)(O)O [ADEFOVIR],158
5,Nc1ccn(C[C@@H](CO)OCP(=O)(O)O)c(=O)n1.O.O [CIDOFOVIR],19
6,Nc1ccn(C[C@H]2COP(=O)(O)CO2)c(=O)n1 [CYCLIC CIDOFOVIR],22.2

# Tested on: not listed separately
# Experiment: Selectivity index, ratio of CC50 for mouse UC1B cells to EC50 of Murine polyomavirus LID1
# Assay type: functional
# Details: not given
row,SMILES,Ratio CC50/EC50
1,Nc1cc(OC[C@@H](CO)OCP(=O)(O)O)nc(N)n1,1.3
2,Nc1ncnc2c1ncn2C[C@@H](CO)OCP(=O)(O)O,1.8
3,Nc1cc(OCCOCP(=O)(O)O)nc(N)n1,3.6
4,Nc1ncnc2c1ncn2CCOCP(=O)(O)O [ADEFOVIR],2.4
5,Nc1ccn(C[C@@H](CO)OCP(=O)(O)O)c(=O)n1.O.O [CIDOFOVIR],9
6,Nc1ccn(C[C@H]2COP(=O)(O)CO2)c(=O)n1 [CYCLIC CIDOFOVIR],13.8

# Tested on: Murine polyomavirus
# Experiment: Antiviral activity against Murine polyomavirus LID1 ATCC VR-252 in mouse UC1B cells assessed as reduction of virus-induced cytopathogenicity
# Assay type: functional, cell-based
# Details: Alphapolyomavirus muris
row,SMILES,EC50 [µM]
1,Nc1cc(OC[C@@H](CO)OCP(=O)(O)O)nc(N)n1,8.2
2,Nc1ncnc2c1ncn2C[C@@H](CO)OCP(=O)(O)O,13.2
3,Nc1cc(OCCOCP(=O)(O)O)nc(N)n1,12.1
4,Nc1ncnc2c1ncn2CCOCP(=O)(O)O [ADEFOVIR],9.9
5,Nc1ccn(C[C@@H](CO)OCP(=O)(O)O)c(=O)n1.O.O [CIDOFOVIR],18.7
6,Nc1ccn(C[C@H]2COP(=O)(O)CO2)c(=O)n1 [CYCLIC CIDOFOVIR],42

# Tested on: Simian virus 40
# Experiment: Antiviral activity against Simian virus 40 PML2 DAR in african green monkey BSC1 cells assessed as reduction of virus-induced cytopathogenicity
# Assay type: functional, organism-based
# Details: Betapolyomavirus macacae, BSC-1
row,SMILES,EC50 [µM]
1,Nc1cc(OC[C@@H](CO)OCP(=O)(O)O)nc(N)n1,112
2,Nc1ncnc2c1ncn2C[C@@H](CO)OCP(=O)(O)O,10.2
3,Nc1cc(OCCOCP(=O)(O)O)nc(N)n1,181
4,Nc1ncnc2c1ncn2CCOCP(=O)(O)O [ADEFOVIR],126
5,Nc1ccn(C[C@@H](CO)OCP(=O)(O)O)c(=O)n1.O.O [CIDOFOVIR],17.8
6,Nc1ccn(C[C@H]2COP(=O)(O)CO2)c(=O)n1 [CYCLIC CIDOFOVIR],18.5

# Tested on: not listed separately
# Experiment: Selectivity index, ratio of CC50 for mouse UC1B cells to EC50 of Murine polyomavirus PTA
# Assay type: functional
# Details: not given
row,SMILES,Ratio CC50/EC50
1,Nc1cc(OC[C@@H](CO)OCP(=O)(O)O)nc(N)n1,1
2,Nc1ncnc2c1ncn2C[C@@H](CO)OCP(=O)(O)O,1.7
3,Nc1cc(OCCOCP(=O)(O)O)nc(N)n1,4.5
4,Nc1ncnc2c1ncn2CCOCP(=O)(O)O [ADEFOVIR],2.1
5,Nc1ccn(C[C@@H](CO)OCP(=O)(O)O)c(=O)n1.O.O [CIDOFOVIR],10.4
6,Nc1ccn(C[C@H]2COP(=O)(O)CO2)c(=O)n1 [CYCLIC CIDOFOVIR],10.7

# Tested on: not listed separately
# Experiment: Cytotoxicity against african green monkey BSC1 cells
# Assay type: cell-based, BSC-1
# Details: chlorocebus aethiops
row,SMILES,CC50 [µM]
1,Nc1cc(OC[C@@H](CO)OCP(=O)(O)O)nc(N)n1,140
2,Nc1ncnc2c1ncn2C[C@@H](CO)OCP(=O)(O)O,89.3
3,Nc1cc(OCCOCP(=O)(O)O)nc(N)n1,72.8
4,Nc1ncnc2c1ncn2CCOCP(=O)(O)O [ADEFOVIR],210
5,Nc1ccn(C[C@@H](CO)OCP(=O)(O)O)c(=O)n1.O.O [CIDOFOVIR],424
6,Nc1ccn(C[C@H]2COP(=O)(O)CO2)c(=O)n1 [CYCLIC CIDOFOVIR],≥ 672

# Tested on: not listed separately
# Experiment: Selectivity index, ratio of CC50 for mouse UC1B cells to EC50 of Murine polyomavirus MN/RDE Toronto
# Assay type: functional
# Details: not given
row,SMILES,Ratio CC50/EC50
1,Nc1cc(OC[C@@H](CO)OCP(=O)(O)O)nc(N)n1,0.9
2,Nc1ncnc2c1ncn2C[C@@H](CO)OCP(=O)(O)O,2.6
3,Nc1cc(OCCOCP(=O)(O)O)nc(N)n1,2
4,Nc1ncnc2c1ncn2CCOCP(=O)(O)O [ADEFOVIR],2.5
5,Nc1ccn(C[C@@H](CO)OCP(=O)(O)O)c(=O)n1.O.O [CIDOFOVIR],13
6,Nc1ccn(C[C@H]2COP(=O)(O)CO2)c(=O)n1 [CYCLIC CIDOFOVIR],16.7

# Tested on: Murine polyomavirus
# Experiment: Antiviral activity against Murine polyomavirus 2PTA2 in mouse UC1B cells assessed as reduction of virus-induced cytopathogenicity
# Assay type: functional, cell-based
# Details: Alphapolyomavirus muris, 2PTA2, UC1B
row,SMILES,EC50 [µM]
1,Nc1cc(OC[C@@H](CO)OCP(=O)(O)O)nc(N)n1,13.9
2,Nc1ncnc2c1ncn2C[C@@H](CO)OCP(=O)(O)O,9.5
3,Nc1cc(OCCOCP(=O)(O)O)nc(N)n1,15.9
4,Nc1ncnc2c1ncn2CCOCP(=O)(O)O [ADEFOVIR],12.8
5,Nc1ccn(C[C@@H](CO)OCP(=O)(O)O)c(=O)n1.O.O [CIDOFOVIR],19
6,Nc1ccn(C[C@H]2COP(=O)(O)CO2)c(=O)n1 [CYCLIC CIDOFOVIR],61.2

# Tested on: Murine polyomavirus
# Experiment: Antiviral activity against Murine polyomavirus MN/RDE Toronto in mouse UC1B cells assessed as reduction of virus-induced cytopathogenicity
# Assay type: functional, cell-based
# Details: Alphapolyomavirus muris
row,SMILES,EC50 [µM]
1,Nc1cc(OC[C@@H](CO)OCP(=O)(O)O)nc(N)n1,11.2
2,Nc1ncnc2c1ncn2C[C@@H](CO)OCP(=O)(O)O,9.5
3,Nc1cc(OCCOCP(=O)(O)O)nc(N)n1,21.2
4,Nc1ncnc2c1ncn2CCOCP(=O)(O)O [ADEFOVIR],9.5
5,Nc1ccn(C[C@@H](CO)OCP(=O)(O)O)c(=O)n1.O.O [CIDOFOVIR],13
6,Nc1ccn(C[C@H]2COP(=O)(O)CO2)c(=O)n1 [CYCLIC CIDOFOVIR],34.9
